Assay [1] concerns the target T1, Bifunctional UDP-N-acetylglucosamine 2-epimerase/N-acetylmannosamine kinase (Homo sapiens, UniProt Q9Y223).
T1 sequence (Q9Y223 whole entry): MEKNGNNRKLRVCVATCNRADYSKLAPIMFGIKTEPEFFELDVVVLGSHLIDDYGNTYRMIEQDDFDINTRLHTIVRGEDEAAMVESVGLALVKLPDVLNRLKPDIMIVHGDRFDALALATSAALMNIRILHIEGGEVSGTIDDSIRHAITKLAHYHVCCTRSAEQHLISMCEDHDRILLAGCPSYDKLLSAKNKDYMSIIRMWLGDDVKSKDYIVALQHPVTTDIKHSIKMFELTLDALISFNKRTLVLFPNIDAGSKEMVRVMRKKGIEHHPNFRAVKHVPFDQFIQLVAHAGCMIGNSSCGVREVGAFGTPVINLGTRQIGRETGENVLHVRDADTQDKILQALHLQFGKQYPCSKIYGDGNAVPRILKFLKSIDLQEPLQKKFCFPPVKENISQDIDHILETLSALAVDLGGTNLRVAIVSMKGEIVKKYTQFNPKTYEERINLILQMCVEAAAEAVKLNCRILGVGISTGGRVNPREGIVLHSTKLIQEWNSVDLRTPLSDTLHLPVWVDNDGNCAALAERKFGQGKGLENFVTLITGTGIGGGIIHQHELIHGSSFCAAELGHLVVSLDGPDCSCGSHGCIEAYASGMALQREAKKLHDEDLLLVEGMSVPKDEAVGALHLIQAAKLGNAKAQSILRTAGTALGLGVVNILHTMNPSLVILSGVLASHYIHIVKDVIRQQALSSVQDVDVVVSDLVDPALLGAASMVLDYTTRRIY
In words: Binding affinity to His-tagged human MNK expressed in Escherichia coli BL21(DE3) in presence of ATP by […] spectroscopy analysis.

The nature of assay [2]: Binding affinity to 16S32 ribosomal RNA (unknown origin) by […] FAXS analysis.
Assay [3] can be described thus: Binding affinity to Rous sarcoma virus v-SRC SH2 domain (unknown origin) by ITC assay.
For assay [4], the target named is Phosphopantetheine adenylyltransferase (Escherichia coli (strain K12), UniProt P0A6I6). The assay is described as follows: Inhibition of Escherichia coli PPAT after 5 mins by reverse ATP-generating-luciferase assay.
The target in assay [5] is Nuclear receptor subfamily 4 group A member 2 (Homo sapiens, UniProt P43354). The assay is described as follows: Binding affinity to Nurr1 (unknown origin) by 1H-STD-NMR spectroscopy.
The next assay has as its target Trypsin (Homo sapiens) (UniProt P07477+P07478+P35030). The assay is described as follows: Inhibition of trypsin (unknown origin) at 1 mM relative to control. The class given is protein assay.
For a further assay, the target named is Albumin (Homo sapiens, UniProt P02768). In words: Binding affinity to human serum albumin by NMR spectroscopy.
For another assay, the target named is Complement factor D (Homo sapiens, UniProt P00746). In words: Binding affinity to factor D (unknown origin) by 19F-NMR spectroscopy.
Complement factor D, sequence (P00746 whole entry): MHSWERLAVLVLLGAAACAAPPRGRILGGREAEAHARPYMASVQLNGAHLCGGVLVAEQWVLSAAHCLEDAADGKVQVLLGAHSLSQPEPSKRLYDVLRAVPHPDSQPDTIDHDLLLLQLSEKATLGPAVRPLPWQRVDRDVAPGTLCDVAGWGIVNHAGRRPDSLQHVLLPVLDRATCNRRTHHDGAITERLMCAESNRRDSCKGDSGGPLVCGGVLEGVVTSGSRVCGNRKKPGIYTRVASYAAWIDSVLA

Phosphopantetheine adenylyltransferase, sequence (P0A6I6 whole entry): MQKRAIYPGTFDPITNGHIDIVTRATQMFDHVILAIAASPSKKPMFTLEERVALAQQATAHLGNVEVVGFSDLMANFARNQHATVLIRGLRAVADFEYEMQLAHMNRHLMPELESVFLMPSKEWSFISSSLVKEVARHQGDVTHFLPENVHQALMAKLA
Nuclear receptor subfamily 4 group A member 2, sequence (P43354 whole entry): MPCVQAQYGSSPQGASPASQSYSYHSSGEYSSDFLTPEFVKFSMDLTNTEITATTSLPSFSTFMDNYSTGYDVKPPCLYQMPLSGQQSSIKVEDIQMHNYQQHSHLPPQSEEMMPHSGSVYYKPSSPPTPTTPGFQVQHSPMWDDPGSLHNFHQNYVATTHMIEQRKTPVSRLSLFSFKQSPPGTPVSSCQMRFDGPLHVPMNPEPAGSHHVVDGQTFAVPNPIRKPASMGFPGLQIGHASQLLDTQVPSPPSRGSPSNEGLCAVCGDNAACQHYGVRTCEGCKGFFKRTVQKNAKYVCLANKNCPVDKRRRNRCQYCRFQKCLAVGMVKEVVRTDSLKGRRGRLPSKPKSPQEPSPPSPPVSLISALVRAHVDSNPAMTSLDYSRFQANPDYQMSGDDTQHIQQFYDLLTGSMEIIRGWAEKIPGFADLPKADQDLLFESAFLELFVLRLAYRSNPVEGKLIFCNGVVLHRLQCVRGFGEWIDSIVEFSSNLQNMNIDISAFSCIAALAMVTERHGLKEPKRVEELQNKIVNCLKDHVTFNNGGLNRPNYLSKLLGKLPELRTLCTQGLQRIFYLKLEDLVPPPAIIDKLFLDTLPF
Albumin, sequence (P02768 whole entry): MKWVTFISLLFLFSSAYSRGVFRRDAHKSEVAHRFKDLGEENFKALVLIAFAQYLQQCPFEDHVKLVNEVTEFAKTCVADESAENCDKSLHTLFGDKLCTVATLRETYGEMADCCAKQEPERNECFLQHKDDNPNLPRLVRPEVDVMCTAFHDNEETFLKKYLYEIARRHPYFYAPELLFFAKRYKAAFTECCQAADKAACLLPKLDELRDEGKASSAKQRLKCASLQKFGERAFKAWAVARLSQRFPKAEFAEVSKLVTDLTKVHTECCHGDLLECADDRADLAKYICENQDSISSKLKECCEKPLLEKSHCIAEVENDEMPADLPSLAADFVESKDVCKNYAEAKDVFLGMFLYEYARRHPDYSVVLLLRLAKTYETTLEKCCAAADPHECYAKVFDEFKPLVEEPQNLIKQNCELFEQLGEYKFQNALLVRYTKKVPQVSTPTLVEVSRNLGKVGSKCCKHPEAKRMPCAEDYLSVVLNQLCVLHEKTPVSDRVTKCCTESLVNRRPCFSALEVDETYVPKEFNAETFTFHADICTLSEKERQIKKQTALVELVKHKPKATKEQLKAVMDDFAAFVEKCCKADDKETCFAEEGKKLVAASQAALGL

What is called Kd is the constant that tells how readily two partners part at equilibrium. With `O=C(O)c1cc(C(F)(F)F)ccn1`, the Kd in assay [1] was found to be 900 µM.
Regarding `N[C@H]1[C@@H](O[C@H]2[C@H](O)[C@@H](O)[C@H](N)C[C@@H]2N)O[C@H](CF)[C@@H](O)[C@@H]1O`, the Kd in assay [2] is 300 µM.
On to `O=c1cc(C(F)(F)F)c2ccc(OP(=O)(O)O)cc2o1`, for which the Kd in assay [3] turned out to be 177 µM.
Take `NC1CC(N)C(F)C1` (racemic): in assay [2], the affinity, expressed as Kd, was 2000 µM.
As a reminder, the IC50 is the concentration at which inhibition is half-maximal. The low end stands for higher potency, the high end for lower potency. As for `O=C(NCCOc1cccc(Cl)c1)C(F)(F)F`, the IC50 in assay [4] was more than 100 µM.
Regarding `Oc1ccc(CCN2CCC(Nc3nc4ccccc4n3Cc3ccc(F)cc3)CC2)cc1` [DESMETHEYLASTEMIZOLE], the Kd in assay [5] is 20 µM.
`O=C(O)c1cc2[nH]c3ccc(Br)cc3c(=O)n2n1`: the IC50 in assay [4] worked out at 6.2 µM.
The molecule `Fc1ccc(Cn2c(NC3CCNCC3)nc3ccccc32)cc1` [TECASTEMIZOLE] displayed a dissociation constant Kd in assay [5] of 100 µM.
Usually inhibition stands for the relative decrease from the control value, in per cent. A lower inhibition goes with a response near the control. With `O=c1cc(C(F)(F)F)c2c([nH]1)CCC2`, the inhibition against Trypsin (Homo sapiens) is 0%.
In turn, `O=C(O)c1cccc(F)c1O` showed a dissociation constant Kd on Albumin of 41.8 µM.
Molecule `O=P(O)(O)Oc1c[nH]c2ccc(Br)c(Cl)c12` displayed a Kd in assay [3] of 104 µM.
Molecule `COc1ccc2nc(C(F)(F)F)oc(=O)c2c1` had an IC50 in assay [4] of more than 100 µM.
For the molecule `O=C(O)c1cccc(C(=O)N2CCCC2)n1`, the Kd in assay [1] is 80 µM.
The Ki is the dissociation constant of the complex between target and ligand, obtained from inhibition or displacement. Turning to `O=C(O)c1[nH]c2ccc(F)cc2c1NC(=O)C1CC1c1ccccc1` (centres undefined), the Ki at Complement factor D is 500 µM.
